This note sets out measurements from patent US12421212B2, “Substituted benzenecarboxamides as IL-17A modulators” (DiCE Alpha, Inc., priority 2019, dated 2025).

For one experiment, the target named is T1, IL-17A/A (Homo sapiens, UniProt Q16552).
T1 construct: purchased Genscript Z03228
T1 sequence (Q16552 24-155): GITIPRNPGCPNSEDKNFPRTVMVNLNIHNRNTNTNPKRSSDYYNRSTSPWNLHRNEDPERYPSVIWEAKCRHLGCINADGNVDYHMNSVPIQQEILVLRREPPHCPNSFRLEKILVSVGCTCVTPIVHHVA
The experiment is described as follows: IL-17A/A HEK-Blue Cell Assay. Type of experiment: cell-based. To be noted: HEK-Blue IL-17A reporter cell line, SEAP readout at A630, 20 hours incubation with IL-17A/A; top concentration 10 uM, 1 uM or 0.3 uM.
As for `CCC(=O)N[C@@H](C(=O)N1CCN(C)CC1)[C@@H](C)c1ccc(NC(=O)C(NC(=O)c2nonc2CC)C(C)C2CCC(C)CC2)c(F)c1` (single isomer, unassigned) [Compound 584], the “IL-17A/A inhibition (pIC50)” value is “X2b (compounds were evaluated up to 1 uM and inhibited activity at 1 uM by less than 20%)”.
Consider `CCC(=O)N[C@H](Cc1ccc(NC(=O)[C@@H](NC(=O)C2(c3ccccc3)CC2)C2CCCCC2)c(F)c1)C(=O)N1CCN(C)CC1` [Compound 710], for which the “IL-17A/A inhibition (pIC50)” value was “X2b (compounds were evaluated up to 1 uM and inhibited activity at 1 uM by less than 20%)”.
As to `CCC(=O)N[C@H](Cc1ccc(NC(=O)[C@@H](NC(=O)c2ccnn2CCO)C2CCCCC2)c(F)c1)C(=O)N1CCN(C)CC1` [Compound 704], the “IL-17A/A inhibition (pIC50)” value was “X2a (compounds were evaluated up to 1 uM and did not inhibit activity by >80%, however they showed some activity at 1 uM (less than 80% and more than 20%))”.

Staying with this experiment, now noted: HEK-Blue IL-17A reporter cell line, SEAP readout at A630, 20 hours incubation with IL-17A/A; top concentration 10 uM, 1 uM or 0.3 uM; read-out: IL-17A/A inhibition (pIC50) (converted).
Turning to `CCn1nccc1C(=O)N[C@H](C(=O)Nc1ccc([C@H](C)[C@@H](NC(=O)c2cscn2)C(=O)N2CCN(C)CC2)cc1F)C1CCCCC1` [Compound 682], the IC50 was 100 to 10000 nM.
`CCn1nccc1C(=O)N[C@H](C(=O)Nc1ccc([C@H](C)[C@@H](NC(=O)C2CC2)C(=O)N2CCN(C)CC2)cc1F)[C@H]1CC[C@H](C)CC1` [Compound 469]: the IC50 is 10 to 100 nM.
In the case of `CCC(=O)NC(Cc1ccc(NC(=O)[C@@H](NC(=O)c2ccnn2CC)C2CCCCC2)c(F)c1)C(=O)N1CCN2CCOCC2C1` (stereo partly drawn) [Compound 693], the IC50 was 100 to 10000 nM.
As to `[2H]C1([2H])N(C)C([2H])([2H])C([2H])([2H])N(C(=O)[C@H](NC(=O)CC)[C@@H](C)c2ccc(NC(=O)[C@@H](NC(=O)c3ccnn3CC)[C@H]3CC[C@H](C)CC3)c(F)c2)C1([2H])[2H]` [Compound 573], the IC50 is below 10 nM.
Take `CCC(=O)N[C@H](Cc1ccc(NC(=O)[C@@H](NC(=O)c2cnn3c2SCC3)C2CCCCC2)c(F)c1)C(=O)N1CCN(C)CC1` [Compound 688]: the IC50 is 100 to 10000 nM.
Take `CCC(=O)N[C@@H](C(=O)N1CCN(Cc2ccccn2)CC1)[C@@H](C)c1ccc(NC(=O)[C@@H](NC(=O)C(F)(F)c2cccc(C#N)c2)C2CCCCC2)c(F)c1` [Compound 363]: the IC50 is below 10 nM.
As for `CCC(=O)N[C@H](Cc1ccc(NC(=O)[C@@H](NC(=O)c2ccnn2CC)C2CCCCC2)c(F)c1)C(=O)N1CCN(C)C[C@@H]1C` [Compound 686], the IC50 is 100 to 10000 nM.
Take `CCc1nonc1C(=O)N[C@H](C(=O)Nc1ccc([C@H](C)[C@@H](NC(=O)NC2CC2)C(=O)N2CCN(C)CC2)cc1F)[C@H]1CC[C@H](C)CC1` [Compound 517]: the IC50 was below 10 nM.
Take `CCC(=O)N[C@@H](C(=O)N1CCN(C(C)(C)C)CC1)[C@@H](C)c1ccc(NC(=O)[C@@H](NC(=O)c2ccnn2CC)[C@H]2CC[C@H](C)CC2)c(F)c1` [Compound 420]: the IC50 was below 10 nM.
As for `CCC(=O)N[C@@H](C(=O)N1CCN(C)CC1)[C@@H](C)c1ccc(NC(=O)[C@@H](NC(=O)C(F)(F)c2cccc(C)c2)C2CCCCC2)c(F)c1` [Compound 684], the IC50 was 100 to 10000 nM.
Same read-out and setting: then `CCn1nccc1C(=O)N[C@H](C(=O)Nc1ccc([C@H](C)[C@@H](NC(=O)c2ccsn2)C(=O)N2CCN(C)CC2)cc1F)C1CCCCC1` [Compound 685], with 100 to 10000 nM; and `CCc1nonc1C(=O)N[C@H](C(=O)Nc1ccc([C@H](C)[C@@H](NC(=O)[C@@H](C)F)C(=O)N2CCN(C)CC2)cc1F)[C@H]1CC[C@H](C)CC1` [Compound 500], with below 10 nM.
On to `CCC(=O)N[C@@H](C(=O)N1CCS(=O)(=O)CC1)[C@@H](C)c1ccc(NC(=O)[C@@H](NC(=O)c2ccnn2CC)C2CCCCC2)c(F)c1` [Compound 361], for which the IC50 is 10 to 100 nM.
In the case of `CCc1nonc1C(=O)N[C@H](C(=O)Nc1ccc([C@H](C)[C@@H](NC(=O)CC2CC2)C(=O)N2CCN(C)CC2)cc1F)[C@H]1CC[C@H](C)CC1` [Compound 492], the IC50 was below 10 nM.
`CCc1nonc1C(=O)N[C@H](C(=O)Nc1ccc([C@H](C)[C@@H](NC(=O)N(C)C2CC2)C(=O)N2CCN(C)[C@@H](C)C2)cc1F)[C@H]1CC[C@H](C)CC1` [Compound 509]: the IC50 was 10 to 100 nM.
